Results published in doi:10.1101/2020.01.14.906396v1 (biorxiv, 2020).

Biological target: T1, K2P2.1 (TREK-1, KCNK2) (Homo sapiens, UniProt O95069)
T1 sequence (O95069 1-426): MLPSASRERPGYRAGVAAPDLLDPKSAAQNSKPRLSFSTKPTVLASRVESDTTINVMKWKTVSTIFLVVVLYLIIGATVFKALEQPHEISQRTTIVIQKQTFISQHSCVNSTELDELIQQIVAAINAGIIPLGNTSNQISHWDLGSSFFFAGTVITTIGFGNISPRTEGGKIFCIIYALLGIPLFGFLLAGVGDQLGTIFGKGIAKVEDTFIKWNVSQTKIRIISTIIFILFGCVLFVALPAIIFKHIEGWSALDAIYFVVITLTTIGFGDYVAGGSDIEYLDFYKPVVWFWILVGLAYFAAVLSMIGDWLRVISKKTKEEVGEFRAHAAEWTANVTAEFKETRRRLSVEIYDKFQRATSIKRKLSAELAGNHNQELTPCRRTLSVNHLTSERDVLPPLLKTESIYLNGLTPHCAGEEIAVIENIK
Assay: two-electrode voltage clamp, Xenopus oocytes
Assay type: cell-based

| EC50 | SMILES |
| --- | --- |
| 430 ± 240 µM | Cc1ccc(C(C)C)c(O)c1 [thymol] |
| 200 ± 60 µM | Cc1ccc(C(C)C)cc1O [carvacrol, 2-methyl-5-(propan-2-yl) phenol] |
| 3800 ± 1000 µM | CC(C)[C@@H]1CC[C@@H](C)C[C@H]1O [menthol] |
